Reference: PubChem BioAssay AID328 (DTP/NCI, 2004)
Several values for one entry are separate records, joined by “and”; a condition that tells them apart may be missing. Equal entries are not always repeated. Toxic doses and inconclusive results are not listed.

Test system: BDF1 mice, P388 leukemia ip, median survival T/C
Test: NCI In Vivo Anticancer Drug Screen. Data for tumor model P388 Leukemia (intraperitoneal) in B6D2F1 (BDF1) mice
Conditions: endpoint: median survival time, higher = longer survival
How it was run: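 Steps: implant the tumour, treat one group with compound and another with vehicle, record survival, then divide treated by control.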

[1] = dose: 100.0 mg/kg/injection, schedule: Q04DX003 (ip), vehicle: saline
[2] = dose: 100.0 mg/kg/injection, schedule: Q01DX009 (ip), vehicle: saline with Tween-80
[3] = dose: 200.0 mg/kg/injection, schedule: Q01DX009 (ip), vehicle: saline with Tween-80

Nc1nc(=S)c2ncn(C3OC(COC(=O)c4ccccc4)C(OC(=O)c4ccccc4)C3OC(=O)c3ccccc3)c2[nH]1 (centres undefined)
T/C (dose: 13.2 mg/kg/injection, schedule: Q01DX009 (ip), vehicle: saline with Tween-80): 120 % of control | T/C (dose: 33.0 mg/kg/injection, schedule: Q01DX009 (ip), vehicle: saline with Tween-80): 154 % of control | T/C (dose: 75.0 mg/kg/injection, schedule: Q01DX009 (ip), vehicle: saline with Tween-80): 90 % of control | T/C [1]: 163 % of control

CCCCCCCCCCCCCCCCNCCO
T/C (dose: 50.0 mg/kg/injection, schedule: Q01DX009 (ip), vehicle: Klucel (hydroxypropylcellulose) (HPC)): 110 % of control | T/C (dose: 100.0 mg/kg/injection, schedule: Q01DX009 (ip), vehicle: Klucel (hydroxypropylcellulose) (HPC)): 112 % of control

CN(Cc1cnc2nc(N)nc(N)c2n1)c1c(Cl)cc(C(=O)NC(CCC(=O)O)C(=O)O)cc1Cl (centres undefined)
T/C (dose: 17.5 mg/kg/injection, schedule: Q01DX009 (ip), vehicle: saline): 213 % of control | T/C (dose: 35.0 mg/kg/injection, schedule: Q01DX009 (ip), vehicle: saline): 270 % of control | T/C (dose: 70.0 mg/kg/injection, schedule: Q01DX009 (ip), vehicle: saline): 270 % of control | T/C [2]: 95 % of control | T/C [3]: 86 % of control | T/C (dose: 264.0 mg/kg/injection, schedule: Q04DX003 (ip), vehicle: saline with Tween-80): 175 % of control | T/C (dose: 400.0 mg/kg/injection, schedule: Q04DX003 (ip), vehicle: saline with Tween-80): 241 % of control | T/C (dose: 600.0 mg/kg/injection, schedule: Q04DX003 (ip), vehicle: saline with Tween-80): 250 % of control

c1ccc(-c2ncc3cnccn23)cc1
T/C (dose: 3.12 mg/kg/injection, schedule: Q01DX009 (ip), vehicle: saline): 100 % of control | T/C (dose: 6.25 mg/kg/injection, schedule: Q01DX009 (ip), vehicle: saline): 100 % of control | T/C (dose: 12.5 mg/kg/injection, schedule: Q01DX009 (ip), vehicle: saline): 100 % of control | T/C (dose: 12.5 mg/kg/injection, schedule: Q04DX003 (ip), vehicle: saline): 114 % of control | T/C (dose: 25.0 mg/kg/injection, schedule: Q04DX003 (ip), vehicle: saline): 116 % of control | T/C (dose: 50.0 mg/kg/injection, schedule: Q01DX009 (ip), vehicle: saline): 88 % of control | T/C (dose: 50.0 mg/kg/injection, schedule: Q04DX003 (ip), vehicle: saline): 105 % of control | T/C [1]: 107 % of control

C=CC(CN1CC1)OC(C)=O (centres undefined)
T/C (dose: 2.0 mg/kg/injection, schedule: Q01DX010 (ip), vehicle: saline): 112 % of control | T/C (dose: 4.0 mg/kg/injection, schedule: Q01DX010 (ip), vehicle: saline): 163 % of control | T/C (dose: 8.0 mg/kg/injection, schedule: Q01DX010 (ip), vehicle: saline): 181 % of control | T/C (dose: 16.0 mg/kg/injection, schedule: Q01DX010 (ip), vehicle: saline): 166 % of control

Cc1cc(C)[s+]s1
T/C (dose: 0.78 mg/kg/injection, schedule: Q01DX009 (ip), vehicle: water): 91 % of control | T/C (dose: 3.12 mg/kg/injection, schedule: Q01DX009 (ip), vehicle: water): 97 % of control | T/C (dose: 6.25 mg/kg/injection, schedule: Q01DX009 (ip), vehicle: water): 91 % of control

O=C(CI)N1c2ccccc2Sc2ccc3ccccc3c21
T/C (dose: 50.0 mg/kg/injection, schedule: Q01DX009 (ip), vehicle: saline with Tween-80): 91 % of control | T/C [2]: 96 % of control | T/C [3]: 116 % of control

COc1ccc(C2C=C(c3ccc4c(c3)OCO4)Oc3c2c(=O)oc2ccccc32)cc1OC (centres undefined)
T/C (dose: 12.5 mg/kg/injection, schedule: Q01DX009 (ip), vehicle: water): 99 % of control | T/C (dose: 25.0 mg/kg/injection, schedule: Q01DX009 (ip), vehicle: water): 94 % of control | T/C (dose: 25.0 mg/kg/injection, schedule: Q04DX003 (ip), vehicle: water): 94 % of control | T/C (dose: 50.0 mg/kg/injection, schedule: Q01DX009 (ip), vehicle: water): 94 % of control | T/C (dose: 50.0 mg/kg/injection, schedule: Q04DX003 (ip), vehicle: water): 101 % of control | T/C (dose: 100.0 mg/kg/injection, schedule: Q01DX009 (ip), vehicle: water): 99 % of control | T/C (dose: 100.0 mg/kg/injection, schedule: Q04DX003 (ip), vehicle: water): 97 % of control | T/C (dose: 200.0 mg/kg/injection, schedule: Q01DX009 (ip), vehicle: water): 94 % of control | T/C (dose: 200.0 mg/kg/injection, schedule: Q04DX003 (ip), vehicle: water): 110 % of control | T/C (dose: 400.0 mg/kg/injection, schedule: Q04DX003 (ip), vehicle: water): 106 % of control

O=C(SCO)c1ccccc1
T/C (dose: 100.0 mg/kg/injection, schedule: Q04DX003 (sc), vehicle: olive oil, sesame oil, peanut oil): 100 % of control | T/C (dose: 200.0 mg/kg/injection, schedule: Q04DX003 (sc), vehicle: olive oil, sesame oil, peanut oil): 110 % of control | T/C (dose: 400.0 mg/kg/injection, schedule: Q04DX003 (sc), vehicle: olive oil, sesame oil, peanut oil): 100 % of control

CC[C@@]1(O)C[C@H](OC2CC(N(C)C)C(OC3CC4OC5CC(=O)C(C)OC5OC4C(C)O3)C(C)O2)c2c(cc3c(c2O)C(=O)c2c(O)cccc2C3=O)[C@H]1C(=O)OC (some centres undefined)
T/C (dose: 0.25 mg/kg/injection, schedule: Q01DX009 (ip), vehicle: water): 109 % of control | T/C (dose: 4.0 mg/kg/injection, schedule: Q01DX009 (ip), vehicle: water): 86 % of control

CCOC(=O)NCNC(=O)OCC
T/C (dose: 100.0 mg/kg/injection, schedule: Q04DX003 (ip), vehicle: saline sonified): 100 % of control | T/C (dose: 200.0 mg/kg/injection, schedule: Q04DX003 (ip), vehicle: saline sonified): 108 % of control | T/C (dose: 400.0 mg/kg/injection, schedule: Q04DX003 (ip), vehicle: saline sonified): 108 % of control

CC(=O)OC1(C)CC(C)C(=O)C(C(O)CC2CC(=O)NC(=O)C2)C1 (centres undefined)
T/C (dose: 0.25 mg/kg/injection, schedule: Q01DX010 (ip), vehicle: water): 90 % of control | T/C (dose: 2.16 mg/kg/injection, schedule: Q01DX001 (sc), vehicle: saline): 100 % of control | T/C (dose: 3.24 mg/kg/injection, schedule: Q01DX001 (ip), vehicle: saline): 110 % of control | T/C (dose: 3.6 mg/kg/injection, schedule: Q01DX001 (sc), vehicle: saline): 123 % of control | T/C (dose: 5.4 mg/kg/injection, schedule: Q01DX001 (ip), vehicle: saline): 116 % of control | T/C (dose: 5.4 mg/kg/injection, schedule: Q04DX003 (ip), vehicle: saline): 107 % of control | T/C (dose: 6.0 mg/kg/injection, schedule: Q01DX001 (sc), vehicle: saline): 118 % of control | T/C (dose: 9.0 mg/kg/injection, schedule: Q01DX001 (ip), vehicle: saline): 117 % of control | T/C (dose: 15.0 mg/kg/injection, schedule: Q01DX001 (ip), vehicle: saline): 123 % of control | T/C (dose: 778.0 micrograms/kg/injection, schedule: Q04DX003 (sc), vehicle: saline): 109 % of control | T/C (dose: 1300.0 micrograms/kg/injection, schedule: Q04DX003 (sc), vehicle: saline): 116 % of control | T/C (dose: 2160.0 micrograms/kg/injection, schedule: Q04DX003 (sc), vehicle: saline): 107 % of control | T/C (dose: 3600.0 micrograms/kg/injection, schedule: Q04DX003 (sc), vehicle: saline): 98 % of control

CCc1ccc2c(c1)N(CCCN(CCCl)CCCl)c1ccccc1S2
T/C (dose: 1.56 mg/kg/injection, schedule: Q04DX003 (ip), vehicle: saline with Tween-80): 102 % of control and 104 % of control | T/C (dose: 3.12 mg/kg/injection, schedule: Q04DX003 (ip), vehicle: saline with Tween-80): 93 % of control and 104 % of control | T/C (dose: 6.25 mg/kg/injection, schedule: Q04DX003 (ip), vehicle: saline with Tween-80): 118 % of control | T/C (dose: 12.5 mg/kg/injection, schedule: Q04DX003 (ip), vehicle: saline with Tween-80): 163 % of control

Nc1nc(=S)c2[nH]cnc2[nH]1
T/C (dose: 0.12 mg/kg/injection, schedule: Q01DX009 (ip), vehicle: acetone): 91 % of control | T/C (dose: 0.25 mg/kg/injection, schedule: Q01DX009 (ip), vehicle: acetone): 100 % of control | T/C (dose: 0.5 mg/kg/injection, schedule: Q01DX009 (ip), vehicle: acetone): 104 % of control | T/C (dose: 0.63 mg/kg/injection, schedule: Q01DX010 (ip), vehicle: saline): 122 % of control | T/C (dose: 1.0 mg/kg/injection, schedule: Q01DX009 (ip), vehicle: acetone): 112 % of control | T/C (dose: 1.25 mg/kg/injection, schedule: Q01DX010 (ip), vehicle: other): 115 % of control | T/C (dose: 1.25 mg/kg/injection, schedule: Q01DX010 (ip), vehicle: saline): 159 % of control | T/C (dose: 2.0 mg/kg/injection, schedule: Q01DX009 (ip), vehicle: acetone): 95 % of control | T/C (dose: 2.5 mg/kg/injection, schedule: Q01DX010 (ip), vehicle: other): 111 % of control | T/C (dose: 2.5 mg/kg/injection, schedule: Q01DX010 (ip), vehicle: saline): 104 % of control | T/C (dose: 5.0 mg/kg/injection, schedule: Q01DX010 (ip), vehicle: other): 90 % of control and 100 % of control | T/C (dose: 5.0 mg/kg/injection, schedule: Q01DX010 (ip), vehicle: saline): 100 % of control
